In publication PMC11681159, “Bee pollen peptides as potent tyrosinase inhibitors with anti-melanogenesis effects in murine b16f10 melanoma cells and zebrafish embryos” (Scientific Reports, 2024):
Ends that are not written are not given here.

Assays:
Assay type in all cases: cell-based, mouse
Details in all cases: B16F10, 48 h
Trp-1 [1] = assay: qRT-PCR, Trp-1 mRNA
Protocol: A 6-well plate was used to seed B16F10 cells at 1 × 10^5 cells per well prior to overnight incubation in a 5% CO2 humid atmosphere at 37°C. […] Harvesting was conducted via removal of the supernatant, and the cells were rinsed twice in PBS (phosphate-buffered saline). The PureLink™RNA Mini Kit (Invitrogen™, USA) was then used to extract total RNA in line with the guidance of the manufacturer. RNA concentration was assessed at 260 nm with a NanoDrop 2000 UV-Vis spectrophotometer (Thermo Fisher Scientific, Inc.). Oligo-dT primers and a Precision nanoScript II Reverse Transcription Kit (PrimerDesign, Camberley, UK) were used to perform the reverse transcription of 1 µg of total RNA to cDNA in line with the guidance of the manufacturer. MyGo Pro®Real time PCR apparatus (IT-IS International Ltd., Stokesley, UK) was then used to perform the qRT-PCR assays in which 20 µL of PCR reaction contained 1 µL of cDNA, 7 µL of ultrapure water, 1 µL of each primer […], and 10 µL of 2×qPCRBIO SyGreen Mix (PCR Biosystems Ltd, London, UK). […] The relative gene expression level could then be calculated via the cycle threshold (Ct) value, while the role of endogenous control for data normalization was occupied by Gapdh (the housekeeping gene). […]

Trp-2 [2] = assay: Western blot, TRP-2 protein
Protocol: (§1) Following this process, the cells were lysed using NP40 Cell Lysis Buffer with protease inhibitor cocktail supplementation. Next, 12% sodium dodecyl sulfate poly-acrylamide (SDS-PAGE) gel electrophoresis was used to extract equal quantities of protein from each sample, with subsequent transfer to PVD (polyvinylidene fluoride) membranes (Millipore, Bedford, MA, USA). The membrane was blocked overnight with 3% skimmed milk (w/v) in TBST with 0.5% Tween 20 at 4 °C and then washed thrice in TBST. The rabbit polyclonal anti-TYR antibody (dilution 1:1000), anti-TRP-1 antibody (dilution 1:1000), anti-TRP-2 antibody and anti-MITF antibody (dilution 1:1000) obtained from Abcam (USA), were used respectively to detect the TYR, TRP-1, TRP-2, and MITF bands. After thrice washing again in TBST, secondary antibodies (dilution 1:5000) were added to the membranes for 1 h of incubation at room temperature before another triplicate washing in TBST. Enhanced chemiluminescence horseradish peroxidase (HRP) substrates (GeneDirex, Taiwan) were then used in line with the guidance of the manufacturer to detect bound antibodies, while β-actin antibody was employed to evaluate the loading control. Gel band detection was performed using ImageJ software (version 1.54), available at https://imagej.net/ij/. The software facilitated the identification and quantification of protein expression levels.

Trp-1 [3] = assay: Western blot, TRP-1 protein
Protocol: as §1, with “Western blot analysis was performed to measure TYR (TYR, TRP-1, TRP-2, and MITF) in B16F10 cells in line with the approach discussed by Yoon et al.[65]. whereby the B16F10 cells underwent treatment for 48 h using various peptide amounts ([…]) and also with arbutin (0.2 mM). Following” for “Following”, “Enhanced chemiluminescence horseradish peroxidase (HRP) substrates (GeneDirex, Taiwan) were then used in line with the guidance of the manufacturer to detect bound antibodies, while β-actin antibody was employed to evaluate the loading control. Gel band detection was performed using ImageJ software (version 1.54), available at https://imagej.net/ij/.” left out

Mitf = assay: qRT-PCR, Mitf mRNA
Protocol: (§2) A 6-well plate was used to seed B16F10 cells at 1 × 10^5 cells per well prior to overnight incubation in a 5% CO2 humid atmosphere at 37°C. […] Harvesting was conducted via removal of the supernatant, and the cells were rinsed twice in PBS (phosphate-buffered saline). The PureLink™RNA Mini Kit (Invitrogen™, USA) was then used to extract total RNA in line with the guidance of the manufacturer. RNA concentration was assessed at 260 nm with a NanoDrop 2000 UV-Vis spectrophotometer (Thermo Fisher Scientific, Inc.). Oligo-dT primers and a Precision nanoScript II Reverse Transcription Kit (PrimerDesign, Camberley, UK) were used to perform the reverse transcription of 1 µg of total RNA to cDNA in line with the guidance of the manufacturer. MyGo Pro®Real time PCR apparatus (IT-IS International Ltd., Stokesley, UK) was then used to perform the qRT-PCR assays in which 20 µL of PCR reaction contained 1 µL of cDNA, 7 µL of ultrapure water, 1 µL of each primer […], and 10 µL of 2×qPCRBIO SyGreen Mix (PCR Biosystems Ltd, London, UK). This research made use of the following PCR primers: Gapdh forward 5’-[…]-3’, Gapdh reverse 5’-[…]-3’, Tyr forward 5’-[…]-3’, Tyr reverse 5’-[…]-3’, Trp-1 forward 5’-[…]-3’, Trp-1 reverse 5’-[…]-3’, Trp-2 forward 5’-[…]-3’, Trp-2 reverse 5’-[…]-3’, Mitf forward 5’-[…] − 3’, Mitf reverse 5’-[…]-3’. The initial stage of the process of qRT-PCR amplification was the activation step of thermal treatment where a temperature of 95 °C was used for 2 min, with 45 subsequent cycles comprising 10 s at 95 °C, 20 s at 60 °C, and 30 s at 72 °C, before embarking upon the final melting curve from 60 to 97 °C with 1 min for each step. The relative gene expression level could then be calculated via the cycle threshold (Ct) value, while the role of endogenous control for data normalization was occupied by Gapdh (the housekeeping gene). To calculate relative gene expression, the formula given below can be employed:2 [drawing 2]
(§3) where the heightened threshold cycle for the target gene is given as ΔΔCt.

Trp-2 [4] = assay: qRT-PCR, Trp-2 mRNA
Protocol: as §2, §3

VDGYPAAGY [VY-9, Val-Asp-Gly-Tyr-Pro-Ala- Ala-Gly-Tyr]
Trp-1 mRNA expression vs control (Trp-1 [1]; 1.6 µM): significantly reduced the expression levels of all measured genes
concentration at which Trp-1 mRNA expression was reduced (highest only) (Trp-1 [1]; vs control): 1.6 µM
TRP-2 protein level vs control (Trp-2 [2]; 0.2 µM): decreased slightly compared to the control
TRP-2 protein expression vs control (Trp-2 [2]; 1.6 µM): the expression of all proteins decreased compared to the control
concentration from which TRP-2 protein expression gradually decreased (Trp-2 [2]; western blot): 0.2 µM
TRP-1 protein expression vs control (Trp-1 [3]; 1.6 µM): the expression of all proteins decreased compared to the control
concentration from which TRP-1 protein expression gradually decreased (Trp-1 [3]; western blot): 0.2 µM
Mitf mRNA expression vs control (Mitf; 1.6 µM): significantly reduced the expression levels of all measured genes
concentration from which Mitf mRNA expression decreased (Mitf; vs control): 0.2 µM
Mitf mRNA expression vs arbutin (Mitf; VY-9 1.6 µM vs arbutin 0.2 mM): significantly decreased compared to arbutin
TRP-2 mRNA level vs control (Trp-2 [4]; 0.2 µM): decreased slightly compared to the control
Trp-2 mRNA expression vs control (Trp-2 [4]; 1.6 µM): significantly reduced the expression levels of all measured genes
concentration from which Trp-2 mRNA expression decreased (Trp-2 [4]; vs control): 0.2 µM
Trp-2 mRNA expression vs arbutin (Trp-2 [4]; VY-9 1.6 µM vs arbutin 0.2 mM): significantly decreased compared to arbutin
